For this assay, the target named is T1, human oxytocin receptor (Homo sapiens, UniProt P30559).
T1 construct: host or cells: CHO cells (pcDNA3.1 vector)
T1 sequence (P30559 1-389): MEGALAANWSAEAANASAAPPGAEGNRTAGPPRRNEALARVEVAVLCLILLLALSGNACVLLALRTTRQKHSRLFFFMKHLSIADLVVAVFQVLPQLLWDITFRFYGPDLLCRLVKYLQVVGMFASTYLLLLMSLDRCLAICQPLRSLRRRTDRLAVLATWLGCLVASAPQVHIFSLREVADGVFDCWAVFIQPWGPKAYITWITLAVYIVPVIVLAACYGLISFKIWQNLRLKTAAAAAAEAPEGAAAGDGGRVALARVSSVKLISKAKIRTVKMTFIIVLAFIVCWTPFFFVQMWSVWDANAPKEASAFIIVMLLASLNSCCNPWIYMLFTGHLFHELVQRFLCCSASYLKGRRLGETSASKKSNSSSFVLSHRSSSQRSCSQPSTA
Nature of the assay: Oxytocin binding in Chinese Hamster Ovary cell membranes expressing human oxytocin receptors. Conditions: 100 nM, CHO cell membranes, [3H]oxytocin, values without parentheses; for inhibition at 0.1 µM: read-out: OT % inhibition @ 100% nM. How it is done:
Oxytocin Binding in Chinese Hamster Ovary Cell Membranes Expressing Human Oxytocin Receptors
The trypsin is removed by aspiration and the cells dislodged by tapping. Cell Culture medium (e.g. 30 mL for 1:30 split) is immediately added and mixed well to inactivate trypsin. 1 mL of detached cells is added to new culture flasks containing fresh Cell Culture medium (e.g. into 25 mL per T-150 flask), and mixed gently. The cells are incubated at 37° C. in 5% CO2. The medium is changed at 3 to 4 days interval (or as appropriate). […] All steps are done under sterile conditions. B. Membrane Preparation: The cells are washed twice gently with Hank's Balanced Salt solution (e.g., use 10 mL per T-150 flask). […] The contents are transferred to centrifuge tubes (50 mL size) kept in ice bath. All subsequent steps are done at 4° C. The tubes are centrifuged at 300×g for 15 min (1380 rpm on SORVAL, Model RT6000D, using rotor for 50 mL tubes). The supernatant is discarded and the cells suspended in homogenizing buffer (10 mM Tris-HCl containing 0.25 M sucrose and 1 mM EDTA, pH 7.4) ensuring that the volume of the buffer is about ten times the volume of the cell pellet. The cells are pooled into a centrifuge tube (50 mL) and homogenized with a Polytron at setting 6 for 10 sec. The homogenate is transferred into a Potter-Elvjehm homogenizer and homogenized with 3 strokes. The homogenate is centrifuged at 1500×g for 10 min at 4° C. (3100 rpm using SORVAL, model RT6000D, using rotor for 50 mL tubes). The pellet is discarded. The supernatant is centrifuged at 100,000×g for 60 min. at 4° C. (Beckman L8-80M ultracentrifuge; spin at 37,500 rpm with rotor type 70 Ti for 50 mL tubes; 38,000 rpm with type 80Ti for 15 mL tubes; or 35,800 rpm with rotor type 45Ti). The supernantant is discarded and the pellet suspended in 3 to 4 mL of Tris buffer (50 mM TRIS-HCl, pH 7.4). The protein content is estimated by the Bradford or Lowry method. The volume of the membrane suspension is adjusted with the membrane buffer (50 mM Tris-HCl containing 0.1% BSA and 0.1 mM PMSF) to give 3.0 mg/mL (or as appropriate) of protein. The membranes are aliquoted and stored at −70° C. C. Radioligand Binding Assay: In wells of a 96-well format microtiter plate, is added 90, 110 or 130 μL (to make up a final volume of 200 μL) of assay buffer containing 50 mM of Tris-HCl (pH 7.4), […], 1 mg % aprotinin, 1 mg % leupeptin, 2 mg % 1,10-phenanthroline, 10 mg % trypsin inhibitor, and 0.1 mM PMSF. The inhibitors are added on the day of the experiment. The components are mixed at room temperature, and then kept in ice bath following adjustment of the pH to 7.4. […] For oxytocin and other peptide ligands, 20 μL of 50% DMSO is added and the assay buffer volume is adjusted accordingly. To each well is added 50 μL of frozen membrane suspension thawed immediately prior to use and diluted in assay buffer to the required concentration (equivalent to 25 to 50 μg of protein/well as needed). 20 μL of 8 nM [^3H]oxytocin in the assay buffer, prepared just before use is added and incubated at room temperature for 60 min. shaking the plate on a mechanical shaker for the first 15 min. The incubation is stopped by rapid filtration of the plate contents followed by washing with ice-cold buffer (50 mM Tris-HCl, pH 7.4) using a cell harvester (Tomtek and Printed filtermat-B filter paper). The filter paper is thoroughly dried (7–12 min. in a microwave oven) and impregnated with MeltiLex B/H melt-on scintillation wax sheets and the radioactivity counted in a betaplate scintillation counter.
Binding data is either reported as percent inhibition at a certain concentration or if an IC50 was calculated, as a nanomolar concentration.

On to `COc1ccccc1-c1ccc(C(=O)N2Cc3ccc(C(=O)N4CCC(N5CCCCC5)CC4)n3Cc3ccccc32)cc1OC` [Example 119, {10-[(2,2′-Dimethoxy-[1,1′-biphenyl]-4-yl)carbonyl]-10,11-dihydro-5H-pyrrolo[2,1-c][1,4]benzodiazepin-3-yl}[4-(1-piperidinyl)-1-piperidinyl]methanone], for which the inhibition at 0.1 µM came out at 58%.

`COc1cccc(-c2ccc(C(=O)N3Cc4ccc(C(=O)N5CCC(N6CCCCC6)CC5)n4Cc4ccccc43)cc2OC)c1` [Example 120, {10-[(2,3′-Dimethoxy-[1,1′-biphenyl]-4-yl)carbonyl]-10,11-dihydro-5H-pyrrolo[2,1-c][1,4]benzodiazepin-3-yl}[4-(1-piperidinyl)-1-piperidinyl]methanone]: the inhibition at 0.1 µM amounted to 69%.

As to `O=C(c1ccc2n1Cc1ccccc1N(C(=O)c1ccc(-c3cccc4ccccc34)cc1Cl)C2)N1CCC(N2CCCCC2)CC1` [Example 121], the “OT % inhibition @ 100% nM” value is 0%.

As for `Cc1cc(C(=O)N2Cc3ccc(C(=O)N4CCC(N5CCCCC5)CC4)n3Cc3ccccc32)ccc1-c1ccccc1C(F)(F)F` [Example 122, {10-[(2-Methyl-2′-(trifluoromethyl) -[1,1′-biphenyl]-4-yl)carbonyl]-10,11-dihydro-5H -pyrrolo[2,1-c][1,4]benzodiazepin-3-yl}[4-(1-piperidinyl)-1-piperidinyl]methanone], the inhibition at 0.1 µM came out at 77%.

For the compound `COc1ccccc1-c1ccc(C(=O)N2Cc3ccc(C(=O)NCCCn4ccnc4)n3Cc3ccccc32)cc1C` [Example 123, N-[3-(1H-Imidazol-1-yl)propyl]-10-[(2′-methoxy-2-methyl[1,1′-biphenyl]-4-yl)carbonyl]-10,11-dihydro-5H-pyrrolo[2,1-c][1,4]benzodiazepine-3-carboxamide], the inhibition at 0.1 µM stood at 47%.

In the case of `Cc1ccccc1-c1ccc(C(=O)N2Cc3ccc(C(=O)NCCCn4ccnc4)n3Cc3ccccc32)cc1C` [Example 124, 10-[(2,2′-Dimethyl[1,1′-biphenyl]-4-yl)carbonyl]-N-[3-(1H-imidazol-1-yl)propyl]-10,11-dihydro-5H-pyrrolo[2,1-c][1,4]benzodiazepine-3-carboxamide], the inhibition at 0.1 µM worked out at 60%.

As for `COc1cccc(-c2ccc(C(=O)N3Cc4ccc(C(=O)NCCCn5ccnc5)n4Cc4ccccc43)cc2C)c1` [Example 125, N-[3-(1H-Imidazol-1-yl)propyl]-10-[(3′-methoxy-2-methyl[1,1′-biphenyl]-4-yl)carbonyl]-10,11-dihydro-5H-pyrrolo[2,1-c][1,4]benzodiazepine-3-carboxamide], the inhibition at 0.1 µM came out at 36%.

Turning to `COc1ccccc1-c1ccc(C(=O)N2Cc3ccc(C(=O)NCCCn4ccnc4)n3Cc3ccccc32)cc1` [Example 126, N-[3-(1H-Imidazol-1-yl)propyl]-10-[(2′-methoxy[1,1′-biphenyl]-4-yl)carbonyl]-10,11-dihydro-5H-pyrrolo[2,1-c][1,4]benzodiazepine-3-carboxamide], the inhibition at 0.1 µM worked out at 43%.

For `Cc1ccccc1-c1ccc(C(=O)N2Cc3ccc(C(=O)NCCCn4ccnc4)n3Cc3ccccc32)cc1` [Example 127, N-[3-(1H-Imidazol-1-yl)propyl]-10-[(2′-methyl[1,1′-biphenyl]-4-yl)carbonyl]-10,11-dihydro-5H-pyrrolo[2,1-c][1,4]benzodiazepine-3-carboxamide], the inhibition at 0.1 µM came out at 29%.

Take `COc1cc(C(=O)N2Cc3ccc(C(=O)NCCCn4ccnc4)n3Cc3ccccc32)ccc1-c1ccccc1C` [Example 128, N-[3-(1H-Imidazol-1-yl)propyl]-10-[(2-methoxy-2′-methyl[1,1′-biphenyl]-4-yl)carbonyl]-10,11-dihydro-5H-pyrrolo[2,1-c][1,4]benzodiazepine-3-carboxamide]: the inhibition at 0.1 µM was 43%.

As a reminder, the inhibition is the share of the control response that was lost under treatment.

Source of the values: US7109193B2, “Tricyclic diazepines tocolytic oxytocin receptor antagonists” (Wyeth, priority 2001, dated 2006).
